Consider 8 molecules from US10940149B1, “Kinase inhibitor salts and compositions thereof” (HANDA ONCOLOGY, LLC, priority 2018, dated 2021).

Where a name gives a salt, the structure may show the parent alone.

Data set [1] can be described thus: solubility of dasatinib salts at 37° C., HPLC (Example 47A). It is filed as physicochemical. The note with it: for solubility: thermodynamic from solid.
Method: (§1) The reaction mass was filtered and the filtrate solution was measured by HPLC.
A short description of data set [2]: solubility of nilotinib salts, HPLC (Example 38A). It is filed as physicochemical. The note with it: 37 °C, pH 1, simulated gastric fluid, thermodynamic from solid.
Method: as §1
Data set [3] can be described thus: solubility of nintedanib salts at room temperature, HPLC (Example 25A). It is filed as physicochemical. The note with it: thermodynamic from solid.
Method: as §1
Data set [4] in a line: HPLC impurity and stability of dasatinib lauryl sulfate salts and capsules (Example 54). It is filed as physicochemical. How it is done:
The RRT was determined using HPLC with the following parameters:
The mobile phase A was 0.05 M aqueous Ammonium Acetate (pH 5.25)/Acetonitrile/Methanol in a volume ratio of 90/5/5.
The mobile phase B was 0.05 M aqueous Ammonium Acetate (pH 5.25)/Acetonitrile/Methanol in a volume ratio of 10/85/5.
Additional methanol is added so the test sample is approximately 0.20 mg of dasatinib per mL.

The next data set is described as follows: physchem. The note with it: 37 °C, pH 1, simulated gastric fluid, thermodynamic from solid.
The nature of data set [5]: HPLC impurity and stability of nilotinib lauryl sulfate salts and dosage forms (Example 62). It is filed as physicochemical. How it is done:
Mobile phase A was 0.25% Formic Acid/acetonitrile in a volume ratio of 90/10.
Mobile phase B was 0.1% Formic Acid/acetonitrile in a volume ratio of 10/90.
Additional diluent is added so the test sample is approximately 0.10 mg of nilotinib per mL.
The test sample of the dosage forms prepared in Examples 60 F and 60 G were prepared by the following procedure:
1. Cut the tip of the capsule with scissors and squeeze the contents from the hole into the 100-mL volumetric flask. Cut the capsule into two parts and add the parts to the flask. Add 80% full of ethanol, sonicate for 10 minutes and stir at 800 rpm for 30 minutes to dissolve the contents completely.
2. Dilute to volume with ethanol, mix well by inverting the flask NLT 10 times
3. Pipette 3 ml into 25-mL amber volumetric flask and add ethanol to volume, mix well by inverting the flask NLT 10 times. The test sample is approximately 0.096 mg of nilotinib per mL.
The nilotinib dilauryl sulfate salt prepared in Example 26 were tested for impurities and stability using HPLC with the following parameters:
The test sample of the nilotinib dilauryl sulfate salt prepared in Example 26 were prepared by weighing about 10 mg of nilotinib dilauryl sulfate (equivalent to 5 mg of nilotinib) and transfer into a 25-mL amber volumetric flask, adding 20 mL of diluent (ethanol), sonicating for about 5 minutes and stirring at 800 rpms for about 5 minutes until the nilotinib dilauryl sulfate is dissolved. Additional diluent is added so the test sample is approximately 0.20 mg of nilotinib per mL.

[6] abbreviates: 60° C./75% R.H. 1 week, HDPE bottle, HPLC Inertsil ODS-3 (NLB-2LS method).
The mark [7] stands for this setting: Room temp., HPLC Inertsil ODS-3 (NLB-2LS method).

Method for physchem: as §1

Take `Cc1nc(Nc2ncc(C(=O)Nc3c(C)cccc3Cl)s2)cc(N2CCN(CCO)CC2)n1` [dasatinib]: in data set [1], the “aqueous solubility, pH dependence” value is listed as “varied with pH”. Further, the solubility was 0.0869 mg/mL in data set [1] (aqueous buffer, 0.05M acetate buffer, pH = 4.5); 0.00018 mg/mL in data set [1] (aqueous buffer, 0.05M phosphate buffer, pH = 6.8); 0.654 mg/mL in data set [1] (simulated gastric fluid, 0.1N HCl, pH = 1.0).

With `Cc1cn(-c2cc(NC(=O)c3ccc(C)c(Nc4nccc(-c5cccnc5)n4)c3)cc(C(F)(F)F)c2)cn1` [Nilotinib HCl], in data set [2], the solubility is 3.8 mg/mL.

Regarding `COC(=O)c1ccc2c(c1)NC(=O)/C2=C(\Nc1ccc(N(C)C(=O)CN2CCN(C)CC2)cc1)c1ccccc1` [nintedanib esylate], the solubility in data set [3] (aqueous buffer, 0.05 M acetate buffer, pH = 4.5) is 6.26 mg/mL; in data set [3] (aqueous buffer, 0.05 M phosphate buffer, pH = 6.8) it was 0.0022 mg/mL; in data set [3] (simulated gastric fluid, 0.1 N HCl, pH = 1.0), 107 mg/mL.

As for `CCCCCCCCCCCCOS(=O)(=O)O.CCCCCCCCCCCCOS(=O)(=O)O.Cc1nc(Nc2ncc(C(=O)Nc3c(C)cccc3Cl)s2)cc(N2CCN(CCO)CC2)n1` [Example 13, dasatinib dilauryl sulfate], in data set [4] (40° C./75% R.H., 1 Month), the “impurity at RRT 0.87” value was 0.06, the “impurity at RRT 0.94 (DAS PIP)” value amounted to 0.09, the “impurity at RRT 0.96” value is given as 0.14 and the “impurity at RRT 1.31 (DAS-6)” value was determined as 0.04. In addition, in data set [4] (Initial), the “impurity at RRT 0.87” value is 0.06, the “impurity at RRT 0.94 (DAS PIP)” value is recorded as 0.09, the “impurity at RRT 0.96” value was 0.13 and the “impurity at RRT 1.31 (DAS-6)” value came to 0.02.

Take `CCCCCCCCCCCCOS(=O)(=O)O.Cc1nc(Nc2ncc(C(=O)Nc3c(C)cccc3Cl)s2)cc(N2CCN(CCO)CC2)n1` [Example 12, dasatinib monolauryl sulfate]: in data set [4] (40° C./75% R.H., 1 Month), the “impurity at RRT 0.96” value turned out to be 0.09, the “impurity at RRT 1.10 (2-Chloro-6-methylaniline)” value was determined as 0.04 and the “impurity at RRT 1.31 (DAS-6)” value came to 0.02. Also, in data set [4] (40° C./75% R.H., 3 Months), the “impurity at RRT 0.87” value is 0.02, the “impurity at RRT 0.94 (DAS PIP)” value came to 0.03, the “impurity at RRT 0.96” value was 0.10 and the “impurity at RRT 1.10 (2-Chloro-6-methylaniline)” value was found to be 0.03. The “impurity at RRT 1.31 (DAS-6)” value in data set [4] (40° C./75% R.H., 3 Months) stood at 0.03. Moreover, in data set [4] (Initial), the “impurity at RRT 0.87” value is listed as 0.02, the “impurity at RRT 0.94 (DAS PIP)” value came to 0.02, the “impurity at RRT 0.96” value is 0.09 and the “impurity at RRT 1.10 (2-Chloro-6-methylaniline)” value is on record as 0.02. Further, in data set [4] (Initial), the “impurity at RRT 1.31 (DAS-6)” value is on record as 0.02.

`Cc1ccc(Nc2nccc(N(C)c3ccc4c(C)n(C)nc4c3)n2)cc1S(N)(=O)=O` [Pazopanib Hydrochloride, pazopanib hydrochloride] yielded a solubility in the data set “physchem” of 3.36 mg/mL.

As for `CCCCCCCCCCCCOS(=O)(=O)O.CCCCCCCCCCCCOS(=O)(=O)O.Cc1cn(-c2cc(NC(=O)c3ccc(C)c(Nc4nccc(-c5cccnc5)n4)c3)cc(C(F)(F)F)c2)cn1` [Example 26, nilotinib dilauryl sulfate], in data set [5] (setting [6]), the “impurity at RRT 0.81” value worked out at 0.05%, the “impurity at RRT 1.09” value is reported as 0.07%, the “impurity at RRT 1.16” value came out at 0.11% and the “impurity at RRT 1.28” value is 0.08%. For the same molecule, in data set [5] (setting [7]), the “impurity at RRT 1.09” value is recorded as 0.07%, the “impurity at RRT 1.16” value is 0.10% and the “impurity at RRT 1.28” value is 0.02%.

On to `CCCCCCCCCCCCOS(=O)(=O)O.Cc1cn(-c2cc(NC(=O)c3ccc(C)c(Nc4nccc(-c5cccnc5)n4)c3)cc(C(F)(F)F)c2)cn1` [Example 46, nilotinib monolauryl sulfate], for which the “impurity at RRT 1.16” value in data set [5] (60° C./75% R.H. 2 weeks, HDPE bottle, HPLC Xterra RP18 (NLB-1LS method)) is given as 0.07%; in data set [5] (Room temp., HPLC Xterra RP18 (NLB-1LS method)), 0.07%.

By solubility is commonly meant how much of the substance goes into solution per volume.
